Laboratory results: PMC6681004, “Asymmetric Whole-Cell Bio-Reductions of (R)-Carvone Using Optimized Ene Reductases” (Molecules, 2019)

Biological target: T1, NostocER1 (Nostoc sp. PCC 7120 = FACHB-418, UniProt A0ACD6B956)
T1 construct: gene all1865; full-length gene, pET28a(+) based vector (NcoI/BamHI), co-expressed with M. vaccae FDH in E. coli BL21(DE3)
Assay: whole-cell biotransformation, chiral GC-FID
Format: cell-based
Conditions: E. coli BL21(DE3) whole cells with FDH; 300 mM (R)-carvone, 450 mM formate, 0.1 mM NAD+, XAD4 resin, pH 7.0, 25 °C; product (2R,5R)-dihydrocarvone

T1 sequence (A0ACD6B956 38-402): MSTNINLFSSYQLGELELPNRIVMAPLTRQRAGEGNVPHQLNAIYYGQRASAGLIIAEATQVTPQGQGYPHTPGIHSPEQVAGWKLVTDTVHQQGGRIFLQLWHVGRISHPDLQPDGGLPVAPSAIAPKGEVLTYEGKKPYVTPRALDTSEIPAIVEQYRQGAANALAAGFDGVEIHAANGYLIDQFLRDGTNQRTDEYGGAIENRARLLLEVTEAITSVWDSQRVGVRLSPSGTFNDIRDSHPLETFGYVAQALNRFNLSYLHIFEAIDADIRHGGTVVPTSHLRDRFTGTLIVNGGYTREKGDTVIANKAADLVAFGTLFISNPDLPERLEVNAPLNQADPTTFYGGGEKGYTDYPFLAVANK

`C=C(C)[C@@H]1CC=C(C)C(=O)C1` [compound 1, (R)-carvone] was tested, and the “whole-cell biotransformation, chiral GC-FID” value was “E. coli cells with the NostocER1 wild type possessed the slowest of all determined product formation rates”.
